Tests used:
[1] = Bulk density of the samples used for the hygroscopicity test; assay type: physicochemical
[2] = Determination of the hygroscopicity (gravimetric water absorption in desiccator at constant humidity); assay type: physicochemical; conditions: 22±2° C., relative humidity of 55%; for Relative water absorption: determined daily over 12 days
Description: In order to determine the hygroscopicity, solid samples were stored in 25 ml glass beakers in a desiccator under constant humidity. […] The water absorption of the samples was determined gravimetrically once daily over a period of 12 days as the difference in mass (see FIG. 14).
Two spray-dried powders were tested as comparison with crystallisate samples of the crystallisates of the α, β and γ crystal modification.
A DTPMP synthesis product having the quality parameters from Table 4 used as the starting slurry for the crystallisation was spray dried with a Büchi-Mini Spray Dryer B-290.

[3] = about 55% humidity at 22° C.
Description: In a further test, the influence of the degree of neutralisation of the phosphonic acid DTPMP on the hygroscopicity was studied, on account of its industrial relevance, especially the sodium salts. To that end, 10 g of sample were stored in four crystallisation dishes of equal size in a desiccator under constant humidity. Via a saturated magnesium nitrate solution with precipitate (about ⅓ precipitate in ⅔ of the solution), about 55% by weight humidity is established at 22° C. The water absorption of the samples was determined gravimetrically twice daily over a period of 22 days as the difference in mass (see FIG. 15).
A crystallisate of the α crystal modification with a foreign acid content of 3.8% by weight chloride and in total 6.6% by weight H3PO4 and H3PO3 per 100% by mass DTPMP was dissolved again. Portions were neutralised with sodium hydroxide solution to pH (1% strength)=1.7 for the Na0.5-DTPMP salt, pH (1% strength)=2.1 for the Na3-DTPMP salt and pH (1% strength)=6.6 for the Na7-DTPMP salt.

[4] = Solubility of DTPMP at room temperature in dependence on the concentration of sodium ions and chloride ions; assay type: physicochemical; conditions: chloride ions in the range of from 1 to 4% by mass, room temperature (FIG. 13)
Description: FIG. 13: Solubility of DTPMP at room temperature in dependence on the concentration of sodium ions and chloride ions in % by mass.

Structure (SMILES) | Bulk density [1] [g/mL] | Relative water absorption [2] [% by mass/day] | also measured
O=P(O)(O)CN(CCN(CP(=O)(O)O)CP(=O)(O)O)CCN(CP(=O)(O)O)CP(=O)(O)O [amorphous powder from spray drying of an unpurified DTPMP sy] [reference compound] | 0.27 | 0.40 | Hygroscopicity / water absorption capacity (in words) ([2]; listed as Spray-dried powders of the unpurified DTPMP synthesis product): greatest hygroscopicity
O=P(O)(O)CN(CCN(CP(=O)(O)O)CP(=O)(O)O)CCN(CP(=O)(O)O)CP(=O)(O)O [Crystal form β, purified quality, diethylenetriamine penta(methylenephosphonic acid)] | 0.49 | 0.04 | Hygroscopicity / water absorption capacity (in words) ([2]; listed as crystal modification β): consistently low water absorption
O=P(O)(O)CN(CCN(CP(=O)(O)O)CP(=O)(O)O)CCN(CP(=O)(O)O)CP(=O)(O)O [Crystal form γ, purified quality, diethylenetriamine penta(methylenephosphonic acid)] | 0.59 | 0.003 | Hygroscopicity / water absorption capacity (in words) [2]: by far the lowest hygroscopicity; Hygroscopicity / water absorption capacity (in words) ([2]; listed as crystal modification γ): consistently low water absorption
O=P(O)(O)CN(CCN(CP(=O)(O)O)CP(=O)(O)O)CCN(CP(=O)(O)O)CP(=O)(O)O [amorphous powder from spray drying of a DTPMP acid purified ] [reference compound] | 0.27 | 0.29 | Hygroscopicity / water absorption capacity (in words) ([2]; listed as DTPMP quality purified by recrystallisation and spray dried): lower water absorption capacity than the unpurified crude product
O=P([O-])([O-])CN(CCN(CCN(CP(=O)([O-])[O-])CP(=O)([O-])O)CP(=O)([O-])O)CP(=O)([O-])O.[Na+].[Na+].[Na+].[Na+].[Na+].[Na+].[Na+] [Na7 salt] |  |  | Appearance of the sample after 22 days [3]: liquefied; Appearance of the sample after half the test time ([3]; after only half the test time (of 22 days)): visibly contracting to form a block
O=P(O)(O)CN(CCN(CP(=O)(O)O)CP(=O)(O)O)CCN(CP(=O)(O)O)CP(=O)(O)O [DTPMP acid, diethylenetriamine penta(methylenephosphonic acid)] |  |  | Appearance of the sample after 22 days [3]: still recognisable
O=P(O)(O)CN(CCN(CP(=O)(O)O)CP(=O)(O)O)CCN(CP(=O)(O)O)CP(=O)(O)O [DTPMP, diethylenetriamine penta(methylenephosphonic acid)] |  |  | Solubility of DTPMP (in words) [4]: further reduction in solubility
O=P(O)(O)CN(CCN(CP(=O)(O)O)CP(=O)(O)O)CCN(CP(=O)(O)O)CP(=O)(O)O [Crystal form α, purified quality, diethylenetriamine penta(methylenephosphonic acid)] | 0.36 | 0.03 | Hygroscopicity / water absorption capacity (in words) ([2]; listed as crystal modification α): consistently low water absorption

Reference: patent US10590153B2, “Process for producing crystalline DTPMP” (Zschimmer & Schwarz Mohsdorf GmbH & Co. KG, priority 2014, dated 2020)
